Experimental data as given in patent publication US6939968B2, “Atropisomers of 3-substituted-4-arylquinolin-2-one derivatives” (Bristol-Myers Squibb Company, priority 2002, dated 2005).
“And” between values parts separate entries of the source, which are not always exact repeats. Equal values may be shown once.

Experiments:
[1] = test system: cloned mammalian (mSlo or hSlo) BK channels heterologously expressed in Xenopus oocytes; test: BK-mediated outward current in Xenopus oocytes, two-electrode voltage clamp; assay type: cell-based; conditions: for BK Current: at 10 μM, percent increase over BK current in controls, voltage step to +140 mV, IBTX-sensitive current; for Current: compounds at 10 μM, IBTX at supramaximal concentration (50-100 nM)
Protocol: The ability of the compounds of the invention to open BK channels and increase whole-cell outward (K+) BK-mediated currents was assessed under voltage-clamp conditions by determining their ability to increase cloned mammalian (mSlo or hSlo) BK—mediated outward current heterologously expressed in Xenopus oocytes [Butler, A., et al., Science, 261: 221-224 (1993); Dworetzky, S. I., et al., Mol. Brain Res., 27: 189-193 (1994); Gribkoff, V. K., et al., Mol. Pharmacol., 50:206-217 (1996)]. The two BK constructs employed represent nearly structurally identical homologous proteins, and have proven to be pharmacologically indistinguishable in our tests. To isolate BK current from native (background, non-BK) current, the specific and potent BK channel-blocking toxin iberiotoxin (IBTX) [Galvez, A., et al., J. Biol. Chem., 265: 11083-11090 (1990)] was employed at a supramaximal concentration, e.g., 50-100 nanomolar (“nM”). The relative contribution of BK channel-mediated current to total outward current was determined by subtraction of the current remaining in the presence of IBTX (non-BK current) from the current profiles obtained in all other experimental conditions (control, drug, and wash) [Gribkoff, V. K. et al., Mol. Pharmacol., 50:206-217 (1996)]. […] All compounds were tested in 5-10 oocytes and are reported at the indicated concentration of 10 micromolar (“μM”); the effect of the selected compounds of the invention on BK current was expressed as the percent of control IBTX-sensitive current at a single transmembrane voltage (+140 mV) and is listed in Table 1. Recordings were accomplished using standard two-electrode voltage clamp techniques [Stuhmer, W., et al., Methods in Enzymology, Vol. 207: 319-339 (1992)]; voltage-clamp protocols consisted of 500-750 milliseconds (“ms”) duration step depolarizations, from a holding potential of −60 mV, to a final voltage up to +140 mV in 20 mV steps. Table 2 lists the current-voltage (I-V) data for two compounds of the invention, applied to oocytes at a concentration of 10 μM. The experimental media (modified Barth's solution) consisted of millimolar (“mM”): NaCl (88), NaHCO3 (2.4), KCl (1.0), HEPES (10), MgSO4 (0.82), Ca(NO3)2 (0.33), CaCl2 (0.41); pH 7.5.

[2] = test system: stress-induced colonic motility (fecal pellet output); test: Air jet stress-induced colonic motor activity; assay type: in vivo; conditions: rats, 20 mg/kg ip
Protocol: Environmental stress is believed to play a role in irritable bowel syndrome and other altered bowel motility states. […] Based on this, we tested the hypothesis that maxi-K^+potassium channel openers of the present invention can be effective in reducing stress-induced acceleration in colonic motility, as indexed by fecal pellet output.
Rats were randomly divided into 2 groups and treated with vehicle (polyethylene glycol (400 grams per mole), 1 mL/kg, ip) or the compound of Example 1 in racemate form (20 mg/kg) at time zero. At 1.5 hr post-treatment, each rat was partially restrained in plexiglas container and was subjected to air-jet stress. This was brought about by exposing each of the partially-restrained animals to 3-4 episodes of 2 minute long air jets with an interval of 8-10 minutes between episodes. The fecal output was collected and the wet weight was recorded. The data were analyzed by combining individual output within each group to calculate a group mean and the means were compared using a statistical test (unpaired, two-tailed t-test; p<0.05).

Compound | BK Current [1] | Current ([1]; voltage 0 mV) [μA] | Current ([1]; voltage 20 mV) [μA] | Current ([1]; voltage 40 mV) [μA] | Current ([1]; voltage 60 mV) [μA] | Current ([1]; voltage 80 mV) [μA] | Current ([1]; voltage 100 mV) [μA] | Current ([1]; voltage 120 mV) [μA] | Current ([1]; voltage 140 mV) [μA] | Current ([1]; voltage −20 mV) [μA] | Current ([1]; voltage −40 mV) [μA] | BK Current ([1]; listed as 3-atropisomer A) [%] | BK Current ([1]; listed as 3-atropisomer B) [%] | fecal output (wet weight, group mean) ([2]; air-jet stress 1.5 hr post-treatment, vehicle group 0.37 grams) [grams] | animals showing a defecatory response to air-jet ([2]; vehicle group 9/12)
Cn1c(=O)c(CCO)c(-c2cc(Cl)ccc2O)c2cc(C(F)(F)F)ccc21 (single isomer, unassigned) [Example 5-atropisomer A, (−) 4-(5-Chloro-2-hydroxy-phenyl)-1-methyl-3-(2-hydroxy-ethyl)-6-trifluoromethyl-1H-quinolin2-one] | 360.8 ± 29.6% and 183.6 ± 9.50% | – | – | – | – | – | – | – | – | – | – | – | – | – | –
iberiotoxin (QFTDVDCSVSKECWSVCKDLFGVDRGKCMGKKCRCYQ; UniProt P24663 1-37, looked up) [IBTX, reference compound] | – | 0 | 0 | 0 | 0 | 0.1 | 0.2 | 0.6 | 1.2 | 0 | 0 | – | – | – | –
O=c1[nH]c2ccc(C(F)(F)F)cc2c(-c2cc(Cl)ccc2O)c1CCO (single isomer, unassigned) [Example 3-atropisomer A, (−) 4-(5-Chloro-2-hydroxy-phenyl)-3-(2-hydroxy-ethyl)-6-trifluoromethyl-1H-quinolin2-one] | – | – | – | – | – | – | – | – | – | – | – | 291.8 ± 26.8 | – | – | –
O=c1[nH]c2ccc(C(F)(F)F)cc2c(-c2cc(Cl)ccc2O)c1CCO (single isomer, unassigned) [Example 3-atropisomer B, (+) 4-(5-Chloro-2-hydroxy-phenyl)-3-(2-hydroxy-ethyl)-6-trifluoromethyl-1H-quinolin2-one] | – | – | – | – | – | – | – | – | – | – | – | – | 213.9 ± 21.4 | – | –
Cn1c(=O)c(CCO)c(-c2cc(Cl)ccc2O)c2cc(C(F)(F)F)ccc21 [Example 2] | – | 0 | 0 | 0.2 | 0.6 | 1.4 | 2.5 | 3.9 | 5.6 | 0 | 0 | – | – | – | –
O=c1[nH]c2ccc(C(F)(F)F)cc2c(-c2cc(Cl)ccc2O)c1CCO (racemic) [Example 1, 4-(5-Chloro-2-hydroxyphenyl)-3-(2-hydroxyethyl)-6 (trifluoromethyl)-2(1H)-Quinolinone] | – | 0.2 | 0.7 | 1.8 | 3.3 | 4.9 | 6.6 | 8.4 | 10.2 | 0 | 0 | – | – | 0.03 | 3 out of 11
